These results are taken from BindingDB's records for doi:10.1021/jm500759v (Griffith University, 2014).

The nature of this assay: Inhibition of neuraminidase activity of human parainfluenza virus 1 C35 hemagglutinin-neuraminidase pre-incubated for 20 mins before MUN substrate by methylumbelliferone release based fluorescence assay.
Regarding `CC(O)C(=O)N[C@H]1[C@H]([C@H](O)[C@H](O)CO)OC(C(=O)O)=C[C@@H]1N=[N+]=[N-]` (stereo partly drawn), the IC50 (commonly the midpoint of a concentration-inhibition curve) came out at 68.1 µM.
As for `CC(C)C(=O)N[C@H]1[C@H]([C@H](O)[C@H](O)CO)OC(C(=O)O)=C[C@@H]1N`, the figure is 261 µM; as for `CC(C)C(=O)N[C@H]1[C@H]([C@H](O)[C@H](O)CO)OC(C(=O)O)=C[C@@H]1NC(=N)N`, over 1000 µM; as for `CC(C)C(=O)N[C@H]1[C@H]([C@H](O)[C@H](O)CO)OC(C(=O)O)=C[C@@H]1O`, 3.82 µM.
Turning to `CCC(C)C(=O)N[C@H]1[C@H]([C@H](O)[C@H](O)CO)OC(C(=O)O)=C[C@@H]1N=[N+]=[N-]` (stereo partly drawn), the IC50 came out at 1.58 µM.
As for `CC(CO)C(=O)N[C@H]1[C@H]([C@H](O)[C@H](O)CO)OC(C(=O)O)=C[C@@H]1N=[N+]=[N-]` (stereo partly drawn), the figure is 9.49 µM.
On to `[N-]=[N+]=N[C@H]1C=C(C(=O)O)O[C@@H]([C@H](O)[C@H](O)CO)[C@@H]1NC(=O)C1CCC1`, for which the IC50 was determined as 1.92 µM.
The same measure for `[N-]=[N+]=N[C@H]1C=C(C(=O)O)O[C@@H]([C@H](O)[C@H](O)CO)[C@@H]1NC(=O)C1CC1`: 0.91 µM.
The same measure for `CC(=O)N[C@H]1[C@H]([C@H](O)[C@H](O)CO)OC(C(=O)O)=C[C@@H]1N=[N+]=[N-]`: 3.92 µM; for `CC(=O)N[C@H]1[C@H]([C@H](O)[C@H](O)CO)OC(C(=O)O)=C[C@@H]1N`: over 1000 µM.
The same measure for `CC(C)C(=O)N[C@H]1[C@H]([C@H](O)[C@H](O)CO)OC(C(=O)O)=C[C@@H]1N=[N+]=[N-]`: 0.5 µM.
As for `C/C=C(\C)C(=O)N[C@H]1[C@H]([C@H](O)[C@H](O)CO)OC(C(=O)O)=C[C@@H]1N=[N+]=[N-]`, half-maximal inhibition (IC50) was put at 7.76 µM.
As for `CC(=O)N[C@H]1[C@H]([C@H](O)[C@H](O)CO)OC(C(=O)O)=C[C@@H]1O`, the figure is 63.8 µM.
